≈ marks a conversion by molar mass, not a printed value. Each block holds one compound with its values, some of them ahead of it.
Experiments:
[1] = molecular target: T1, egg albumin (Gallus gallus, UniProt P01012); test: Egg albumin method (albumin denaturation); type: biochemical; details: for Inhibition of albumin denaturation: concentration range 10 to 100 μg/ml
T1 sequence (P01012 1-386): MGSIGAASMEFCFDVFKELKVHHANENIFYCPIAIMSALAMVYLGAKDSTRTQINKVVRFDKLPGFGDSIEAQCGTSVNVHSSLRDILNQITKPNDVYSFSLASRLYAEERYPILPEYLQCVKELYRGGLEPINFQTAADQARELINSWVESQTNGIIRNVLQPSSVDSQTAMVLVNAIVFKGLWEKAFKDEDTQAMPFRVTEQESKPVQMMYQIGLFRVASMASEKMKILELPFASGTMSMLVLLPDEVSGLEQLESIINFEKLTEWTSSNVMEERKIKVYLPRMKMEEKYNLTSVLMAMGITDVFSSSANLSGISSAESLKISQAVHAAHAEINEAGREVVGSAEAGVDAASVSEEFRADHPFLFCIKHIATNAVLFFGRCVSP
Description: (§1) The anti-inflammatory activity of vasicine was investigated with lipooxygenase (LOX) inhibition assay ([26]), bovine serum albumin (BSA) method ([27]), egg albumin method ([28], [29]), and protein inhibitory action ([30]).

[2] = test system: lipooxygenase (LOX); test: Lipooxygenase inhibition assay; type: biochemical
Description: as §1

[3] = test system: proteinase; test: Proteinase inhibitory activity; type: biochemical
Description: as §1

[4] = test system: lung carcinoma (A545); test: Anticancer activity, direct microscopic observation and MTT assay; type: cell-based
Procedure: (§2) The anticancer activity of vasicine for the potential treatment of lung carcinoma (A545) was evaluated in a multi-step process. Cytotoxicity of vasicine was investigated by cytotoxicity evaluation (human fibroblast cell line, C0135C) ([39], [40]), direct microscopic observation ([41]), and MTT assay ([42]).

[5] = molecular target: hemoglobin (Homo sapiens, UniProt P68871+P69905); test: Non-enzymatic glycosylation of hemoglobin assay; type: biochemical; details: incubation of hemoglobin with glucose for 72 h; in comparison to the standard drug
Procedure: (§3) The antidiabetic activity of vasicine was evaluated with in vitro enzymatic assays using α-amylase and α-glucosidase ([31]–[36]). The non-enzymatic glycosylation of hemoglobin assay was also carried out ([37]).

[6] = ABTS scavenging activity
Procedure: (§4) The anti-oxidant activity of vasicine was evaluated with ABTS [2,2′-azino-bis (3-ethylbenzothiazoline-6-sulfonic acid)] activity ([20]), ferric reducing power (FRAP) assay, DPPH radical scavenging activity, hydroxyl radical scavenging activity ([21]–[24]), and hydrogen peroxide assay ([25]).

[7] = Hydrogen peroxide assay
Procedure: as §4

[8] = test system: Escherichia coli; test: Antibacterial colony forming units (CFU) assay; type: cell-based; details: E. coli; increasing concentration of purified vasicine
Procedure: (§5) Antibacterial assay was carried outby colony forming units (CFU) assay using anaerobic and facultative oral bacteria ([17]). Two different bacterial strains (Escherichia coli and Bacillus badius) were collected from NCCS, Pune. […] The broth were kept in incubator at 37°C for 24 h. Two strains of Bacteria were grown in MH broth to an OD600nm of 0.5. 2 μLaliquot of the bacteria and 5 ml of fresh MH broth (contains various concentration of vasicine) was added ([19]). The log10 reduction in CFU/ml was determined.

[9] = test system: Bacillus badius; test: Antibacterial colony forming units (CFU) assay; type: cell-based; details: increasing concentration of purified vasicine
Procedure: as §5

[10] = test system: human fibroblast cell line, C0135C; test: Cytotoxicity evaluation, MTT assay; type: cell-based; details: cell viability
Procedure: as §2

[11] = Ferric reducing antioxidant power (FRAP) assay
Procedure: as §4

[12] = molecular target: bovine serum albumin (BSA) (Bos taurus, UniProt P02769); test: BSA method (albumin denaturation); type: biochemical
Description: as §1

[13] = Hydroxyl radical scavenging assay; details: for Hydroxyl radical scavenging % inhibition: range, up to 100 μg/ml
Procedure: as §4

[14] = test system: serum alkaline phosphatase; parameters: method as in Srinivasarao et al. ([60]); details: Swiss albino mice treated with vasicine; ref Srinivasarao et al. ([60]); cited from earlier work
[15] = molecular target: α-amylase; test: α-amylase inhibition assay; type: biochemical
Procedure: as §3

[16] = DPPH radical scavenging activity; details: for DPPH % inhibition: at 100 μg/ml
Procedure: as §4

Chain of bovine serum albumin (BSA) (P02769 25-607): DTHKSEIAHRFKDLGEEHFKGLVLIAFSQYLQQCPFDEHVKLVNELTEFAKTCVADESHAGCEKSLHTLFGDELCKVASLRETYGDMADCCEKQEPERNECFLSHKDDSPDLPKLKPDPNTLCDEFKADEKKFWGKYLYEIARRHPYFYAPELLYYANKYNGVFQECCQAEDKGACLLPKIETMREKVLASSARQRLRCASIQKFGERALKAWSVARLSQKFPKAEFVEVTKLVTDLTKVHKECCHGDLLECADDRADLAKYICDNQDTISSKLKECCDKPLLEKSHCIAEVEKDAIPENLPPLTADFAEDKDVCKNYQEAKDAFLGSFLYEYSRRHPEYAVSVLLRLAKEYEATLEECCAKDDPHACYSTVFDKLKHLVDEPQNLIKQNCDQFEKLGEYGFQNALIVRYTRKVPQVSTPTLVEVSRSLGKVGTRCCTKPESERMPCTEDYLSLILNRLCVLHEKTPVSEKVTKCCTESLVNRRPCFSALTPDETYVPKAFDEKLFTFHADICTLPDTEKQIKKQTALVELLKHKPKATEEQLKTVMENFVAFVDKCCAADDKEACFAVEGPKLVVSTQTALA
Chain of hemoglobin (P69905 2-142 limits assumed): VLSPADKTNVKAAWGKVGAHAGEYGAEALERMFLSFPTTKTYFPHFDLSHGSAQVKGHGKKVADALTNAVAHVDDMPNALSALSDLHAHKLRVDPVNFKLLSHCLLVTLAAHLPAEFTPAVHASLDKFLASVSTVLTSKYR
Chain of hemoglobin (P68871 2-147 limits assumed): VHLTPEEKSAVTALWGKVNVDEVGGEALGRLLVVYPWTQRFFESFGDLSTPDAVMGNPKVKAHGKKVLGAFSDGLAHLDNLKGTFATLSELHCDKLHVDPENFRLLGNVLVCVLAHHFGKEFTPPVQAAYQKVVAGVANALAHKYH

Inhibition of albumin denaturation [1]: 89% | Lipooxygenase % inhibition ([2]; at 100 μg/ml): 82%
SMILES: O=C(O)Cc1ccccc1Nc1c(Cl)cccc1Cl [diclofenac sodium, reference compound]

Proteinase % inhibition ([3]; standard): 79%
SMILES: CC(=O)Oc1ccccc1C(=O)O [aspirin, reference compound]

SMILES: O[C@H]1CCN2Cc3ccccc3N=C12 [vasicine]
Proteinase inhibitory IC50 [3]: 76 µg/mL | inhibition at 100 µg/mL ([4]; A545, read-out: Growth inhibition of lung cancer cell line): 30.1% | Inhibition of cell growth, lung cancer cell line ([4]; discussion statement, concentration not given): More than 50% | Inhibition of hemoglobin glycosylation [5]: substantially inhibits hemoglobin glycosylation | ABTS scavenging IC50 [6]: 11.5 µg/mL | IC50 [1]: 283 µM | Inhibition of albumin denaturation [1]: 81% | Lipooxygenase IC50 [2]: 76 µg/mL | Lipooxygenase maximum percentage inhibition ([2]; maximum): 83% | Hydrogen peroxide assay IC50 [7]: 27.8 µg/mL | Inhibitory activity against hydrogen peroxide ([7]; 10–100 μg): 9–59% | Number of colonies (CFU assay) [8]: number of colonies reduced | Number of colonies (CFU assay) [9]: number of colonies reduced | IC50 [10]: 82.5 µg/mL (≈ 438 µM) | FRAP IC50 [11]: 15 µg/mL | FRAP % inhibition ([11]; at 100 μg/ml): 62% | IC50 [12]: 275 µM | BSA method maximum percentage of inhibition ([12]; maximum): 82% | Hydroxyl radical scavenging IC50 [13]: 22 µg/mL | Hydroxyl radical scavenging % inhibition [13]: 12–69% | Serum alkaline phosphatase [14]: increase in serum alkaline phosphatase | α-amylase inhibition IC50 [15]: 47.6 µg/mL | DPPH radical scavenging IC50 [16]: 18.2 µg/mL | DPPH % inhibition [16]: 81%

SMILES: O=C1O[C@H]([C@@H](O)CO)C(O)=C1O [ascorbic acid, reference compound]
Hydroxyl radical scavenging % inhibition [13]: 15–86% | DPPH % inhibition [16]: 96%

— publication PMC10099809, “Valorization of Adhatoda vasica leaves: Extraction, in vitro analyses and in silico approaches” (Frontiers in Nutrition, 2023)
